Experimental data published in patent US9814758B2, “Inhibitors of apoptosis and uses thereof” (CENTRE NATIONAL DE LA RECHERCHE SCIENTIFIQUE-CNRS, priority 2010, dated 2017).
Non-standard residues stand in square brackets, D forms with d. Residues, ends and D or L forms follow the SMILES beside them. No end group written: not given here. Ahx = NCCCCCC(=O)O

Tested on: C57Bl6 mice, myocardial ischemia-reperfusion
Test: Myocardial ischemia-reperfusion IR60' (40 min ischemia, 60 min reperfusion)
Type: in vivo, mouse
Protocol: FIG. 11: In vivo experimental protocol. C57Bl6 mice underwent a surgical protocol of myocardial ischemia-reperfusion (IR). The black box represents the period of ischemia to which the mice were submitted. Infarct size or cell death measurements were performed at the end of surgery for each protocol (indicated by ↑). IR60′: 40 minutes of Ischemia, 60 minutes of Reperfusion. IR24h: 40 minutes Ischemia and 24 hours Reperfusion.
FIG. 12: Cardioprotective effects of Tat-DAXXp (1 mg/kg—IV) in mice subjected to IR60′. Infarct size (in % of area at risk) and internucleosomal DNA fragmentation determined by ELISA were quantified in mice subjected to IR60′ and treated with Tat, Tat-DAXXp or Tat-scrDAXXp (1 mg/kg) as well as with DAXXp (10 mg/kg) (intravenous injection (IV) 5 minutes before reperfusion). Means±SEM were plotted for (A): Area at risk/LV mass (left ventricle), (B): Infarct size (in % of area at risk) and (C): (I/NI ratio) corresponding to the ratio of soluble nucleosome in the ischemic portion versus the non-ischemic portion of LV tissues. Statistical analysis was performed using One-way ANOVA with Neuman-Keuls post test for multiple comparisons (GraphPad Prism software). P<0.05, P<0.01 and P<0.001 versus Tat-DAXXp were noted *, **, and *** respectively. P=ns (not significant) for P>0.05.
FIG. 13: Dose response for Tat-DAXXp and DAXXp in mice subjected to IR60′. Infarct size (in % of area at risk) and internucleosomal DNA fragmentation determined by ELISA were quantified in mice subjected to IR60′ and treated with Tat (1 mg/kg), Tat-DAXXp (0.1, 1 and 10 mg/kg) or DAXXp (0.1, 1 and 10 mg/kg) injected intravenously 5 minutes before reperfusion. Means±SEM were plotted for (A): Area at risk/LV mass (left ventricle), (B): Infarct size (in % of area at risk) and (C): (I/NI ratio) corresponding to the ratio of soluble nucleosome in the ischemic versus the non-ischemic portion of LV tissues.
In a second step, the cardioprotective effects of DAXXp were evaluated in an in vivo model of myocardial ischemia-reperfusion. Acute myocardial ischemia and reperfusion were performed in C57Bl6 mice subjected to a surgical model of reversible coronary occlusion. Male mice (22-28 g) were anesthetized and ventilated via a tracheal intubation using a Harvard rodent respirator. Body temperature was maintained between 36.8° C. and 37.0° C. via a thermo-regulated surgical table. The chest was opened by left lateral thoracotomy and a reversible coronary artery snare occluder was placed around the left coronary artery. Mice were randomly allocated to two different surgical protocols of myocardial ischemia-reperfusion (FIG. 11). At the end of reperfusion, the artery was re-occluded and phtalocyanine blue dye was injected into the left ventricle cavity and allowed to perfuse the non-ischemic portions of the myocardium. To determine the effect of DAXXp on myocardial infarct size, peptides were administered intravenously (caudal vein) 5 minutes before reperfusion during the surgical protocol of ischemia-reperfusion. The control groups were treated with Tat or Pip2b peptide (for CPP alone). The dose of 1 mg/kg was chosen (μmolar range) and dose responses for 0.1 and 10 mg/kg were also tested.
At the end of reperfusion, mice were re-anaesthetized, the coronary ligature definitively tightened, the blue dye injected and the harvested left ventricles were dedicated to infarct size (TTC method, Schwartz et al, J Thromb. Thromb., 2000; 10: 181-187) or DNA fragmentation measurements (Cell death detection ELISA^PLUS kit, Roche Diagnostics) in order to investigate the cardioprotective effects against ischemia-reperfusion injuries.

Molecule: CC[C@H](C)[C@H](NC(=O)[C@H](Cc1c[nH]cn1)NC(=O)[C@@H](NC(=O)[C@H](CCCNC(=N)N)NC(=O)CCCCCNC(=O)[C@H](CCCNC(=N)N)NC(=O)[C@H](CCCNC(=N)N)NC(=O)CCCCCNC(=O)[C@H](CCCNC(=N)N)NC(=O)[C@H](CCCNC(=N)N)NC(=O)CCCCCNC(=O)[C@@H](N)CCCNC(=N)N)[C@@H](C)CC)C(=O)N[C@@H](CC(C)C)C(=O)N[C@@H](Cc1ccccc1)C(=O)N[C@@H](CCC(N)=O)C(=O)N[C@@H](CC(N)=O)C(=O)N[C@H](CCCNC(=N)N)C(=O)N[C@@H](CCCNC(=N)N)C(=O)N[C@@H](CCSC)C(=O)N[C@@H](CCCCN)C(=O)N[C@@H](Cc1c[nH]c2ccccc12)C(=O)N[C@@H](Cc1c[nH]cn1)C(=O)N[C@@H](CCCCN)C(=O)N[C@@H](CCCCN)C(=O)N[C@@H](CCCCN)C(=O)N[C@@H](CO)C(=O)N[C@@H](CCCNC(=N)N)C(=O)N[C@@H](CCCCN)C(=O)N[C@@H](CCC(=O)O)C(=O)N[C@@H](CCCCN)C(=O)N[C@@H](CCCCN)C(=O)N[C@@H](CCC(N)=O)C(=O)N[C@H](C(=O)NCC(=O)N[C@@H](CO)C(=O)NCC(=O)N1CCC[C@H]1C(=O)N[C@@H](CC(C)C)C(=O)NCC(N)=O)[C@@H](C)O [Pip2b-DAXXp, (RXR)3-IHILFQNrRMKWHK-KKSRKEKKQTGSGPLG-NH2] (H-R[Ahx]RR[Ahx]RR[Ahx]RIHILFQN[dR]RMKWHKKKSRKEKKQTGSGPLG-NH2; N-terminus assumed)
- cardioprotection (infarct size, DNA fragmentation) (IR60', data not shown): not observed

Molecule: GRKKRRQRRRPPQKKSRKEKKQTGSGPLG-NH2 [Tat-DAXXp, GRKKRRQRRRPPQ-KKSRKEKKQTGSGPLG-NH2]
- specific DNA fragmentation in left ventricles versus Tat-injected mice (1 mg/kg IV, IR60'): drastic decrease
- decrease of infarct size versus Tat peptide alone (1 mg/kg intravenously 5 min before reperfusion, after 1 hour-reperfusion, p<0.01): 53.4%
- dose of maximal effect (dose response 0.1, 1 and 10 mg/kg IV, FIG. 13): 1 mg/kg

Molecule: KKSRKEKKQTGSGPLG-NH2 [DAXXp, KKSRKEKKQTGSGPLG-NH2]
- decrease of infarct size (10 mg/kg injected alone (without CPP)): to the same extent than Tat-DAXXp
